Assay results: US20230364074A1, “Compounds and Compositions for Disrupting Programmed Ribosomal Frameshifting” (YALE UNIVERSITY, priority 2020, published 2023)
Where a name gives a salt, the structure may show the parent alone. Read-outs that look alike come from different tables or passages of the source.

How the values were obtained:
SARS-CoV-2 FSE (−1 PRF) = experiment: cells; assay type: cell-based
HEK293T cells = experiment: Cell viability in the high-throughput screen (cell nuclei numbers)
Protocol: HEK293T cells were plated in 384 well plates at the density of 5,000 cells/well. Cells were treated by 10 μM candidate compounds 30 min before transfection of 15 ng mCherry-FSE-GFP(−1) plasmid DNA in each well. 24 hours after transfection, cell nuclei were stained with Hoechst dye. Cell nuclei, mCherry, and GFP signals were imaged using an automated fluorescent microscope with a 10x objective, and the acquired images were quantified using the CellProfiler image analysis package. Cell nuclei numbers were quantified as the metric for cell viability. Mean GFP and RFP intensity values were measured in all transfected cells, and GFP/mCherry mean intensity ratios were quantified as the metric for PRF efficiency. The mCherry-GFP fusion plasmid and the mCherry-FSE-GFP(0) plasmid were used as positive and negative controls for elevated and reduced GFP/mCherry ratios, respectively.

[1] = Severe acute respiratory syndrome coronavirus 2, HEK-293T, 24 h; read-out: PERCENT EFFECT 2 (Decreased GFP/Red ratio)
[2] = Severe acute respiratory syndrome coronavirus 2, HEK-293T, 24 h; read-out: PERCENT EFFECT (Increased GFP/Red Ratio)
[3] = 10 μM compound, cell nuclei numbers
[4] = Severe acute respiratory syndrome coronavirus 2, HEK-293T, 24 h, read-out: PERCENT EFFECT 2 (Decreased GFP/Red ratio)
[5] = Severe acute respiratory syndrome coronavirus 2, HEK-293T, 24 h, read-out: PERCENT EFFECT (Increased GFP/Red Ratio)

C[C@H]1O[C@@H](O[C@H]2[C@@H](O)C[C@H](O[C@H]3[C@@H](O)C[C@H](O[C@H]4CC[C@@]5(C)[C@H](CC[C@@H]6[C@@H]5CC[C@]5(C)[C@@H](C7=CC(=O)OC7)CC[C@]65O)C4)O[C@@H]3C)O[C@@H]2C)C[C@H](O)[C@@H]1O [digitoxin]
inhibition at 10 µM (SARS-CoV-2 FSE (−1 PRF); [1]): -34.2% | activation at 10 µM (SARS-CoV-2 FSE (−1 PRF); [2]): 16.8% | PERCENT VIABILITY (HEK293T cells; [3]): 6.9%

CC[C@]1(O)C[C@@H]2CN(CCc3c([nH]c4ccccc34)[C@@](C(=O)OC)(c3cc4c(cc3OC)N(C)[C@H]3[C@@](O)(C(N)=O)[C@H](O)[C@]5(CC)C=CCN6CC[C@]43[C@@H]65)C2)C1 [Vindesine Sulfate]
activation at 10 µM (SARS-CoV-2 FSE (−1 PRF); [2]): 16.8% | PERCENT VIABILITY (HEK293T cells; [3]): 26.1% | PERCENT VIABILITY (HEK293T cells; 10 μM compound, cell nuclei numbers, listed as Vindesine sulfate): 21.3%

CCCCC(=O)O[C@H]1CC[C@H]2[C@@H]3CCc4cc(O)ccc4[C@H]3CC[C@]12C [ESTRADIOL VALERATE]
inhibition at 10 µM (SARS-CoV-2 FSE (−1 PRF); [1]): 20.9% | activation at 10 µM (SARS-CoV-2 FSE (−1 PRF); [2]): -10.8% | PERCENT VIABILITY (HEK293T cells; [3]): 204.4%

Cc1cc(-c2ccc(/N=N/c3ccc4c(S(=O)(=O)O)cc(S(=O)(=O)O)c(N)c4c3O)c(C)c2)ccc1/N=N/c1ccc2c(S(=O)(=O)O)cc(S(=O)(=O)O)c(N)c2c1O [EVANS BLUE]
inhibition at 10 µM (SARS-CoV-2 FSE (−1 PRF); [1]): 31.2% | activation at 10 µM (SARS-CoV-2 FSE (−1 PRF); [2]): -13.6% | PERCENT VIABILITY (HEK293T cells; [3]): 159.7%

Clc1ccc(C(Cn2ccnc2)OCc2ccsc2Cl)c(Cl)c1 (centres unmarked) [tioconazole]
inhibition at 10 µM (SARS-CoV-2 FSE (−1 PRF); [4]): -51.1% | activation at 10 µM (SARS-CoV-2 FSE (−1 PRF); [5]): 26.7% | PERCENT VIABILITY (HEK293T cells; human): 99.7%

C[C@H]1O[C@@H](n2cc(F)c(=O)[nH]c2=O)[C@H](O)[C@@H]1O [DOXIFLURIDINE]
inhibition at 10 µM (SARS-CoV-2 FSE (−1 PRF); [1]): -31.7% | activation at 10 µM (SARS-CoV-2 FSE (−1 PRF); [2]): 17.1% | PERCENT VIABILITY (HEK293T cells; [3]): 382.9%

COc1cccc2c1C(=O)c1c(O)c3c(c(O)c1C2=O)C[C@@](O)(C(=O)CO)C[C@@H]3O[C@H]1C[C@H](N)[C@@H](O)[C@H](C)O1 [EPIRUBICIN HYDROCHLORIDE]
inhibition at 10 µM (SARS-CoV-2 FSE (−1 PRF); [1]): 105% | activation at 10 µM (SARS-CoV-2 FSE (−1 PRF); [2]): -56.4% | PERCENT VIABILITY (HEK293T cells; [3]): 46.3%

CCCC1(CCC)CCC2(CCN(CCCN(CC)CC)C2)CC1 [atiprimod, 3-(8,8-dipropyl-3-azaspiro[4.5]decan-3-yl)-N,N-diethylpropan-1-amine]
inhibition at 10 µM (SARS-CoV-2 FSE (−1 PRF); [1]): -40.9% | activation at 10 µM (SARS-CoV-2 FSE (−1 PRF); [2]): 21.2% | PERCENT VIABILITY (HEK293T cells; [3]): 7.2%

COc1cccc2c1C(=O)c1c(O)c3c(c(O)c1C2=O)C[C@@](O)(C(C)=NNC(=O)c1ccccc1)C[C@@H]3O[C@H]1C[C@H](N)[C@H](O)[C@H](C)O1.Cl [zorubicin, N-[1-[(2S,4S)-4-[(2R,4S,5S,6S)-4-amino-5-hydroxy-6-methyloxan-2-yl]oxy-2,5,12-trihydroxy-7-methoxy-6,11-dioxo-3,4-dihydro-1H-tetracen-2-yl]ethylideneamino]benzamide hydrochloride]
inhibition at 10 µM (SARS-CoV-2 FSE (−1 PRF); [4]): 106%

COc1ccc(C[C@H](N)C(=O)NC2[C@@H](O)[C@H](n3cnc4c(N(C)C)ncnc43)O[C@@H]2CO)cc1 (stereo partly drawn) [puromycin, (2S)-2-amino-N-[(2S,4R,5R)-5-(6-dimethylaminopurin-9-yl)-4-hydroxy-2-(hydroxymethyl)oxolan-3-yl]-3-(4-methoxyphenyl)propanamide]
activation at 10 µM (SARS-CoV-2 FSE (−1 PRF); [2]): 18.9% | PERCENT VIABILITY (HEK293T cells; [3]): 26.1% | PERCENT VIABILITY (HEK293T cells; 10 μM compound, cell nuclei numbers, listed as Puromycin): 49.7%

COc1cccc2c1C(=O)c1c(O)c3c(c(O)c1C2=O)C[C@@](O)(C(=O)CO)C[C@@H]3O[C@H]1C[C@H](N)[C@H](O)[C@H](C)O1 [DOXORUBICIN]
inhibition at 10 µM (SARS-CoV-2 FSE (−1 PRF); [1]): 101% | activation at 10 µM (SARS-CoV-2 FSE (−1 PRF); [2]): -54.1% | PERCENT VIABILITY (HEK293T cells; [3]): 13.3%

Cc1cc(C)c(Nc2ccnc(Nc3ccc(C#N)cc3)n2)c(C)c1 [dapivirine, 4-[[4-[(2,4,6-trimethylphenyl)amino]pyrimidin-2-yl]amino]benzonitrile]
inhibition at 10 µM (SARS-CoV-2 FSE (−1 PRF); [1]): -51.1% | activation at 10 µM (SARS-CoV-2 FSE (−1 PRF); [2]): 24% | PERCENT VIABILITY (HEK293T cells; [3]): 36.7%

Nc1c2c(nc3ccccc13)CCCC2 [TACRINE HYDROCHLORIDE]
inhibition at 10 µM (SARS-CoV-2 FSE (−1 PRF); [4]): 97.1% | activation at 10 µM (SARS-CoV-2 FSE (−1 PRF); [5]): -50.2% | PERCENT VIABILITY (HEK293T cells; human): 148.9%

CC(=O)[C@]1(N)Cc2c(O)c3c(c(O)c2[C@@H](O[C@H]2C[C@H](O)[C@H](O)CO2)C1)C(=O)c1ccccc1C3=O.Cl [amrubicin, (7S,9S)-9-acetyl-9-amino-7-[(2S,4S,5R)-4,5-dihydroxyoxan-2-yl]oxy-6,11-dihydroxy-8,10-dihydro-7H-tetracene-5,12-dione hydrochloride]
inhibition at 10 µM (SARS-CoV-2 FSE (−1 PRF); [4]): 50.5% | activation at 10 µM (SARS-CoV-2 FSE (−1 PRF); [5]): -23.7% | PERCENT VIABILITY (HEK293T cells; human): 111.0%

C[C@@H]1O[C@@H](O[C@H]2C[C@@H](O)[C@]3(CO)[C@H]4[C@H](O)C[C@]5(C)[C@@H](C6=CC(=O)OC6)CC[C@]5(O)[C@@H]4CC[C@]3(O)C2)[C@H](O)[C@H](O)[C@H]1O [Ouabain]
inhibition at 10 µM (SARS-CoV-2 FSE (−1 PRF); [1]): -29.7% | activation at 10 µM (SARS-CoV-2 FSE (−1 PRF); [2]): 15.7% | PERCENT VIABILITY (HEK293T cells; [3]): 16.4%

CCN(CC)CCNC(=O)c1cc(Br)c(N)cc1OC [BROMOPRIDE]
inhibition at 10 µM (SARS-CoV-2 FSE (−1 PRF); [1]): 65.7% | activation at 10 µM (SARS-CoV-2 FSE (−1 PRF); [2]): -35.5% | PERCENT VIABILITY (HEK293T cells; [3]): 113.8%

CCOC(=O)Nc1ccc(NCc2ccc(F)cc2)nc1N [flupirtine, ethyl N-(2-amino-6-{[(4-fluorophenyl)methyl]amino}pyridin-3-yl)carbamate]
inhibition at 10 µM (SARS-CoV-2 FSE (−1 PRF); [1]): -27.2% | activation at 10 µM (SARS-CoV-2 FSE (−1 PRF); [2]): 14.4% | PERCENT VIABILITY (HEK293T cells; [3]): 110.5%

NCCNc1ccc(NCCN)c2c1C(=O)c1ccncc1C2=O [Pixantrone dimaleate, 6,9-bis[(2-aminoethyl)amino]-5H,10H-benzo[g]isoquinoline-5,10-dione]
inhibition at 10 µM (SARS-CoV-2 FSE (−1 PRF); [1]): -29.9% | activation at 10 µM (SARS-CoV-2 FSE (−1 PRF); [2]): 15.8% | PERCENT VIABILITY (HEK293T cells; [3]): 120.8%

CCN(CCO)CCCC(C)Nc1ccnc2cc(Cl)ccc12 (centres unmarked) [HYDROXYCHLOROQUINE SULFATE]
inhibition at 10 µM (SARS-CoV-2 FSE (−1 PRF); [1]): -34.5% | activation at 10 µM (SARS-CoV-2 FSE (−1 PRF); [2]): 18.9% | PERCENT VIABILITY (HEK293T cells; [3]): 346.2%

O=C(Nc1ccc(Cl)cc1)Nc1ccc(Cl)c(C(F)(F)F)c1 [halocarban, 3-(4-chlorophenyl)-1-[4-chloro-3-(trifluoromethyl)phenyl]urea]
inhibition at 10 µM (SARS-CoV-2 FSE (−1 PRF); [1]): -48.8% | activation at 10 µM (SARS-CoV-2 FSE (−1 PRF); [2]): 23.9% | PERCENT VIABILITY (HEK293T cells; [3]): 54.7%

CCN(CC)CCCC(C)Nc1c2ccc(Cl)cc2nc2ccc(OC)cc12 (centres unmarked) [QUINACRINE HYDROCHLORIDE]
inhibition at 10 µM (SARS-CoV-2 FSE (−1 PRF); [1]): -40.8% | activation at 10 µM (SARS-CoV-2 FSE (−1 PRF); [2]): 21.1% | PERCENT VIABILITY (HEK293T cells; [3]): 147.8%

CCC1=C[C@@H]2CN(C1)Cc1c([nH]c3ccccc13)[C@@](C(=O)OC)(c1cc3c(cc1OC)N(C)[C@H]1[C@@](O)(C(=O)OC)[C@H](OC(C)=O)[C@]4(CC)C=CCN5CC[C@]31[C@@H]54)C2 [Vinorelbine]
inhibition at 10 µM (SARS-CoV-2 FSE (−1 PRF); [1]): -29.2% | activation at 10 µM (SARS-CoV-2 FSE (−1 PRF); [2]): 15.2% | PERCENT VIABILITY (HEK293T cells; [3]): 27.8%

NCCCNc1ccc2c3c(nn2CCNCCO)-c2c(O)ccc(O)c2C(=O)c13 [piroxantrone, 5-(AMINO-PR-AMINO)-DI-HO-2-(2-(HO-ET-AMINO)-ET)-2H-DIBENZO(CD,G)INDAZOL-ONE]
inhibition at 10 µM (SARS-CoV-2 FSE (−1 PRF); [1]): 88.7% | activation at 10 µM (SARS-CoV-2 FSE (−1 PRF); [2]): -43.5% | PERCENT VIABILITY (HEK293T cells; [3]): 91.45%

CCN1/C(=C/C=C/C=C/c2sc3ccccc3[n+]2CC)Sc2ccccc21.[I-] [dithiazanine, 3-ethyl-2-[(1Z,3E,5E)-5-(3-ethyl-1,3-benzothiazol-2-ylidene)penta-1,3-dienyl]-1,3-benzothiazol-3-ium iodide]
inhibition at 10 µM (SARS-CoV-2 FSE (−1 PRF); [1]): 79.7% | activation at 10 µM (SARS-CoV-2 FSE (−1 PRF); [2]): -39% | PERCENT VIABILITY (HEK293T cells; [3]): 48.28%

O=[N+]([O-])c1cc(Cl)cc(-c2cc(Cl)cc([N+](=O)[O-])c2O)c1O [niclofolan, 4-chloro-2-(5-chloro-2-hydroxy-3-nitrophenyl)-6-nitrophenol]
inhibition at 10 µM (SARS-CoV-2 FSE (−1 PRF); [1]): -36.6% | activation at 10 µM (SARS-CoV-2 FSE (−1 PRF); [2]): 17.2% | PERCENT VIABILITY (HEK293T cells; [3]): 68.0%

Cc1cc(/C=C/c2ccc3cc(N(C)C)ccc3[n+]2C)c(C)n1-c1ccccc1 [PYRVINIUM PAMOATE]
PERCENT VIABILITY (HEK293T cells; [3]): 15.1%
